Measured values reported in paper PMC11118832 (Biomolecules, 2024).
Square brackets hold non-standard residues; d marks the D form. Ends that are not written are not given here. Peptide text beside a SMILES is read from it. NMeY = CN[C@@H](Cc1ccc(O)cc1)C(=O)O; pS = N[C@@H](COP(=O)(O)O)C(=O)O; hLeu = CC(C)CC[C@H](N)C(=O)O; NMeA = CN[C@@H](C)C(=O)O; Nle = CCCC[C@H](N)C(=O)O; Orn = NCCC[C@H](N)C(=O)O

Target: T1, PD-1/PD-L1 (Homo sapiens, UniProt Q15116)
T1 construct: this kit uses ectodomains of PD-1 and PD-L1 that are expressed with orthogonal fusion tags (Tag-1 and Tag-2); purchased CisBio (currently Perkin-Elmer, Bedford, MA)
Experiment: In vitro time-resolved FRET PD-1/PD-L1 binding assay (CisBio kit)
Settings: CisBio PD-1/PD-L1 binding kit, TR FRET, 96-well, 4-fold serial dilutions in triplicate, freshly dissolved peptides; read-out: IC50, inhibition of PD-1/PD-L1 binding (TR FRET assay)
Method: Commercial PD-1/PD-L1 binding assay kit (CisBio, currently Perkin-Elmer, Bedford, MA) for time resolve fluorescent energy transfer (FRET) was used to assess peptides binding to PD-1. The assay for peptide screening was performed in a 96-well format (normal pressure), starting with 4-fold serial dilutions of each peptide in triplicate. No-peptide triplicate wells were used to assess fluorescent energy transfer in the absence of inhibition, and no-PD-1/PD-L1 triplicate wells were used to assess the background fluorescent energy transfer in the absence of PD-1/PD-L1 complexes. More detailed concentration dependences were obtained for selected peptides. Only freshly dissolved peptides were used in the assay. Various QSAR (quantitative structure activity relationship) hypotheses were tested by synthesizing batches of 10–12 peptides. In total, over one hundred candidates in ten iterations were screened for their ability to inhibit in vitro PD-1/PD-L1 binding using the commercial PD-1/PD-L1 binding assay kit (CisBio, currently Perkin-Elmer). Briefly, this kit uses ectodomains of PD-1 and PD-L1 that are expressed with orthogonal fusion tags (Tag-1 and Tag-2). It also includes two antibodies to selectively interact with these tags. The antibody against one tag is labeled with fluorescent moiety, which serves as a donor, while the other antibody is labeled with fluorescent moiety, which serves as an acceptor in fluorescent resonance energy transfer (FRET). When the complex is formed and probed with both anti-Tag-1 and anti-Tag-2 antibodies, donor and acceptor are sufficiently close, and FRET can be detected in a time-resolved (TR) manner. Inhibitors of PD-1/PD-L1 interactions prevent complex formation, leading to a decrease in TR FRET in a concentration-dependent manner, as shown in Figure 2 for four representative peptide inhibitors. Initial fourfold dilutions are exemplified by data for peptides B5.11 and B5.6 (panels A and B); examples of the more detailed follow-up concentration dependences are shown for peptides B2.4 and B2.22 (panels C and D). The potency of the inhibitors is then characterized by IC50, a concentration that inhibits TR FRET by 50%, allowing for a facile comparison of different inhibitors (Figure 2E).

IC50 [µM] | Compound
0.5 | CCCC[C@H](NC(=O)[C@@H](NC(=O)[C@H](CCCNC(=N)N)NC(C)=O)C(C)C)C(=O)N[C@H](C(=O)N[C@H](C(=O)N[C@H](C(=O)NCC(=O)N[C@@H](C)C(=O)N[C@@H](C)C(=O)N[C@@H](Cc1c[nH]c2ccccc12)C(=O)N[C@@H](CC(=O)O)C(=O)N[C@@H](Cc1ccc(O)cc1)C(=O)N[C@@H](CCCCN)C(=O)N[C@@H](Cc1ccc(O)cc1)C(N)=O)C(C)C)[C@@H](C)CC)C(C)C [B2.4] (Ac-RV[Nle]VIVGAAWDYKY-NH2)

Same assay, conditions: CisBio PD-1/PD-L1 binding kit, TR FRET, 96-well, serial dilutions in triplicate; NI = no inhibition at maximum concentration tested (* 5 μM, ** 50 μM); read-out: EC50 (Supplementary Table S1; inhibition of PD-1/PD-L1 binding by in vitro TR-FRET assay)

Compound | EC50 [µM]
CC[C@H](C)[C@H](NC(=O)[C@@H](NC(=O)[C@H](CC(C)C)NC(C)=O)C(C)C)C(=O)N[C@H](C(=O)NCC(=O)N(C)[C@@H](C)C(=O)N[C@@H](C)C(=O)N[C@@H](Cc1c[nH]c2ccccc12)C(=O)N[C@@H](CC(=O)O)C(=O)N[C@@H](Cc1ccc(O)cc1)C(=O)N[C@@H](CCCCN)C(=O)N(C)[C@@H](Cc1ccc(O)cc1)C(N)=O)C(C)C [B3.10] (Ac-LVIVG[NMeA]AWDYK[NMeY]-NH2) | > 50
Ac-DVIDGAAWDRKY-NH2 [B8.22] | > 5
IVGAAWDYKY [B3.12] | > 50
CCCC[C@H](NC(=O)[C@@H](NC(=O)[C@@H](N)CCCNC(=N)N)C(C)C)C(=O)N[C@H](C(=O)N[C@H](C(=O)N[C@H](C(=O)NCC(=O)N[C@@H](C)C(=O)N[C@@H](C)C(=O)N[C@@H](Cc1c[nH]c2ccccc12)C(=O)N[C@@H](CC(=O)O)C(=O)N[C@@H](Cc1ccc(O)cc1)C(=O)N[C@@H](CCCCN)C(=O)O)C(C)C)[C@@H](C)CC)C(C)C [B4.5] (H-RV[Nle]VIVGAAWDYK-OH; N-terminus and C-terminus assumed) | > 5
CCCC[C@H](NC(C)=O)C(=O)N[C@H](C(=O)N[C@@H](CC(=O)O)C(=O)N[C@H](C(=O)N[C@H](C(=O)N[C@H](C(=O)NCC(=O)N[C@@H](C)C(=O)N[C@@H](C)C(=O)N[C@@H](Cc1c[nH]c2ccccc12)C(=O)N[C@@H](CC(=O)O)C(=O)N[C@@H](Cc1ccc(O)cc1)C(=O)N[C@@H](CCCCN)C(=O)N[C@@H](Cc1ccc(O)cc1)C(N)=O)C(C)C)[C@@H](C)CC)C(C)C)C(C)C [B5.5] (Ac-[Nle]VDVIVGAAWDYKY-NH2) | > 5
Ac-DDIVGAAWDYKY-NH2 [B7.6] | > 5
Ac-DVLDGAAWDYKY-NH2 [B8.13] | > 5
Ac-DVIDGAAHDYKY-NH2 [B8.21] | > 5
Ac-DVIVGASWDYKY-NH2 [B7.3] | > 5
Ac-DIIVGAAWDYKY-NH2 [B5.10] | > 5
Ac-DVIDGAAWDYKYLQ-NH2 [B7.8] | > 5
CC[C@H](C)[C@H](NC(=O)[C@@H](NC(=O)[C@H](CC(C)C)NC(C)=O)C(C)C)C(=O)N[C@H](C(=O)NCC(=O)N[C@@H](C)C(=O)N[C@@H](C)C(=O)N[C@@H](Cc1c[nH]c2ccccc12)C(=O)N[C@@H](COP(=O)(O)O)C(=O)N[C@@H](Cc1ccc(O)cc1)C(=O)N[C@@H](CCCCN)C(=O)N[C@@H](Cc1ccc(O)cc1)C(N)=O)C(C)C [B6.2] (Ac-LVIVGAAW[pS]YKY-NH2) | > 5
Ac-DVIVGSAWDYKY-NH2 [B7.2] | > 5
Ac-DVIDGAAWDYK-NH2 [B8.24] | > 5
CC(=O)N[C@H](CC(=O)O)C(=O)NCC(=O)N[C@@H](C)C(=O)N[C@@H](C)C(=O)N[C@@H](Cc1c[nH]c2ccccc12)C(=O)N[C@@H](CC(=O)O)C(=O)N[C@@H](Cc1ccc(O)cc1)C(=O)N[C@@H](CCCCN)C(=O)N[C@@H](Cc1ccc(O)cc1)C(N)=O [B9.8] (Ac-[dD]GAAWDYKY-NH2) | > 50
Ac-DVVDGAAWDYKY-NH2 [B8.3] | > 5
Ac-DVWVGAAWDYKY-NH2 [B5.2] | > 5
CC[C@H](C)[C@H](NC(=O)[C@H](CCC(C)C)NC(=O)[C@H](CC(=O)O)NC(C)=O)C(=O)N[C@H](C(=O)NCC(=O)N[C@@H](C)C(=O)N[C@@H](C)C(=O)N[C@@H](Cc1c[nH]c2ccccc12)C(=O)N[C@@H](CC(=O)O)C(=O)N[C@@H](Cc1ccc(O)cc1)C(=O)N[C@@H](CCCCN)C(=O)N[C@@H](Cc1ccc(O)cc1)C(N)=O)C(C)C [B5.3] (Ac-D[hLeu]IVGAAWDYKY-NH2) | > 5
Ac-EAAWDYKY-NH2 [B9.7] | > 50
CCCC[C@H](NC(C)=O)C(=O)N[C@H](C(=O)N[C@H](C(=O)N[C@H](C(=O)NCC(=O)N[C@@H](C)C(=O)N[C@@H](C)C(=O)N[C@@H](Cc1c[nH]c2ccccc12)C(=O)N[C@@H](CC(=O)O)C(=O)N[C@@H](CCCNC(=N)N)C(=O)N[C@@H](CCCCN)C(=O)N[C@@H](Cc1ccc(O)cc1)C(N)=O)C(C)C)[C@@H](C)CC)C(C)C [B4.3] (Ac-[Nle]VIVGAAWDRKY-NH2) | > 5

Results, then the compound that gave them:

EC50 [µM] | Compound
> 5 | Ac-LVIVGAAWDYK-NH2 [B3.14]
26 | Ac-LVIVGARWDYKR-NH2 [B3.7]
> 5 | CC[C@H](C)[C@H](NC(=O)[C@@H](NC(=O)[C@@H](CC(=O)O)NC(C)=O)C(C)C)C(=O)N[C@@H](CC(=O)O)C(=O)NCC(=O)N[C@@H](C)C(=O)N[C@@H](C)C(=O)N[C@@H](Cc1c[nH]c2ccccc12)C(=O)N[C@@H](CC(=O)O)C(=O)N[C@@H](Cc1ccc(O)cc1)C(=O)N[C@@H](CCCCN)C(=O)N[C@@H](Cc1ccc(O)cc1)C(N)=O [B8.19] (Ac-[dD]VIDGAAWDYKY-NH2)
20 | Ac-RVWVIVGAAWDYKY-NH2 [B2.12]
5 | Ac-LVWVGAAWDRKY-NH2 [B3.19]
55 | Ac-RVLVIVGAAWDYKR-NH2 [B2.7]
5 | CCCC[C@H](NC(=O)[C@@H](NC(=O)[C@H](CCCNC(=N)N)NC(C)=O)C(C)C)C(=O)N[C@H](C(=O)N[C@H](C(=O)N[C@H](C(=O)NCC(=O)N[C@@H](C)C(=O)N[C@@H](CCCN)C(=O)N[C@@H](Cc1c[nH]c2ccccc12)C(=O)N[C@@H](CC(=O)O)C(=O)N[C@@H](Cc1ccc(O)cc1)C(=O)N[C@@H](CCCCN)C(=O)N[C@@H](Cc1ccc(O)cc1)C(N)=O)C(C)C)[C@@H](C)CC)C(C)C [B4.9] (Ac-RV[Nle]VIVGA[Orn]WDYKY-NH2)
5.8 | Ac-DVIDGPAWDYKY-NH2 [B8.11]
1.8 | CC(=O)N[C@@H](CCCNC(=N)N)C(=O)N[C@H](C(=O)N[C@@H](CCC(C)C)C(=O)N[C@H](C(=O)N[C@@H](CCC(C)C)C(=O)N[C@H](C(=O)NCC(=O)N[C@@H](C)C(=O)N[C@@H](C)C(=O)N[C@@H](Cc1c[nH]c2ccccc12)C(=O)N[C@@H](CC(=O)O)C(=O)N[C@@H](Cc1ccc(O)cc1)C(=O)N[C@@H](CCCCN)C(=O)N[C@@H](Cc1ccc(O)cc1)C(N)=O)C(C)C)C(C)C)C(C)C [B2.27] (Ac-RV[hLeu]V[hLeu]VGAAWDYKY-NH2)
1 | CCCC[C@H](NC(C)=O)C(=O)N[C@H](C(=O)N[C@@H](CC(C)C)C(=O)N[C@H](C(=O)N[C@H](C(=O)N[C@H](C(=O)NCC(=O)N[C@@H](C)C(=O)N[C@@H](C)C(=O)N[C@@H](Cc1c[nH]c2ccccc12)C(=O)N[C@@H](CC(=O)O)C(=O)N[C@@H](CCCNC(=N)N)C(=O)N[C@@H](CCCCN)C(=O)N[C@@H](Cc1ccc(O)cc1)C(N)=O)C(C)C)[C@@H](C)CC)C(C)C)C(C)C [B2.16] (Ac-[Nle]VLVIVGAAWDRKY-NH2)
22 | Ac-YVLVIVGAAWDKKY-NH2 [B2.26]
24 | Ac-RSMISYGGADDYK-NH2 [B1.1]
22 | CC[C@H](C)[C@H](NC(=O)[C@@H](NC(=O)[C@H](CC(C)C)NC(=O)[C@@H](NC(=O)[C@H](CCCNC(=N)N)NC(C)=O)C(C)C)C(C)C)C(=O)N[C@H](C(=O)NCC(=O)N[C@@H](C)C(=O)N[C@@H](C)C(=O)N[C@@H](CCC(C)C)C(=O)N[C@@H](CC(=O)O)C(=O)N[C@@H](Cc1ccc(O)cc1)C(=O)N[C@@H](CCCCN)C(=O)N[C@@H](Cc1ccc(O)cc1)C(N)=O)C(C)C [B2.32] (Ac-RVLVIVGAA[hLeu]DYKY-NH2)
6.8 | Ac-DVIDGAAWDYRY-NH2 [B8.7]
14 | LVIVGAAWDYKY [B3.11]
55 | Ac-RVKVIVGAAWDYKY-NH2 [B2.11]
4 | CCCC[C@H](NC(=O)[C@@H](NC(=O)[C@H](CC(C)C)NC(=O)[C@@H](NC(=O)[C@H](CCCNC(=N)N)NC(C)=O)C(C)C)C(C)C)C(=O)N[C@H](C(=O)NCC(=O)N[C@@H](C)C(=O)N[C@@H](C)C(=O)N[C@@H](Cc1c[nH]c2ccccc12)C(=O)N[C@@H](CC(=O)O)C(=O)N[C@@H](Cc1ccc(O)cc1)C(=O)N[C@@H](CCCCN)C(=O)N[C@@H](Cc1ccc(O)cc1)C(N)=O)C(C)C [B2.17] (Ac-RVLV[Nle]VGAAWDYKY-NH2)
2.2 | Ac-DVIEGAAWDYKY-NH2 [B8.1]
11 | RVLVIVGAAWDYKY [B2.28]
30 | Ac-RVLVIVGAAWDYKY-NH2 [B2.1]
0.5 | CCCC[C@H](NC(=O)[C@@H](NC(=O)[C@H](CCCNC(=N)N)NC(C)=O)C(C)C)C(=O)N[C@H](C(=O)N[C@H](C(=O)N[C@H](C(=O)NCC(=O)N[C@@H](C)C(=O)N[C@@H](C)C(=O)N[C@@H](Cc1c[nH]c2ccccc12)C(=O)N[C@@H](CC(=O)O)C(=O)N[C@@H](Cc1ccc(O)cc1)C(=O)N[C@@H](CCCCN)C(=O)N[C@@H](Cc1ccc(O)cc1)C(N)=O)C(C)C)[C@@H](C)CC)C(C)C [B2.4] (Ac-RV[Nle]VIVGAAWDYKY-NH2)
